Assay results as given in PubChem BioAssay (NCI).
Where “and” joins values, the source holds several entries; their conditions need not be identical. Equal values may be shown once.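 Values below derive from 48-hour exposures of cells grown in 96-well plates, with endpoints linearly interpolated between the two concentrations bracketing the appropriate inhibition level. TGI denotes the concentration required for complete inhibition of growth.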

What was measured:
Test in all cases: NCI tumour cell line growth inhibition, 48 h
[1] = tested on: MCF7 breast
[2] = tested on: SF-539 CNS
[3] = tested on: UACC-62 melanoma
[4] = tested on: SN12K1 renal
[5] = tested on: OVCAR-5 ovarian
[6] = tested on: NCI-H23 lung
[7] = tested on: LOX IMVI melanoma
[8] = tested on: P388/ADR leukemia
[9] = tested on: SK-MEL-5 melanoma
[10] = tested on: SR leukemia
[11] = tested on: SNB-78 CNS
[12] = tested on: HOP-92 NSCLC
[13] = tested on: HOP-18 NSCLC
[14] = tested on: SK-MEL-28 melanoma
[15] = tested on: SN12C renal
[16] = tested on: MOLT-4 leukemia
[17] = tested on: DMS 114 small cell lung
[18] = tested on: DMS 273 small cell lung
[19] = tested on: RXF-631 renal
[20] = tested on: OVCAR-4 ovarian
[21] = tested on: M19-MEL melanoma
[22] = tested on: IGROV1 ovarian
[23] = tested on: HOP-62 NSCLC
[24] = tested on: NCI/ADR-RES ovarian
[25] = tested on: HCT-15 colon
[26] = tested on: LXFL 529 NSCLC
[27] = tested on: HL-60(TB) leukemia
[28] = tested on: DLD-1 colon
[29] = tested on: NCI-H226 lung
[30] = tested on: KM20L2 colon
[31] = tested on: 786-0 renal
[32] = tested on: TK-10 renal
[33] = tested on: SK-OV-3 ovarian
[34] = tested on: CCRF-CEM leukemia
[35] = tested on: UACC-257 melanoma
[36] = tested on: XF 498 CNS
[37] = tested on: P388 leukemia
[38] = tested on: NCI-H460 lung
[39] = tested on: NCI-H522 lung
[40] = tested on: KM12 colon
[41] = tested on: EKVX NSCLC
[42] = tested on: A498 renal
[43] = tested on: SW-620 colon
[44] = tested on: COLO 205 colon
[45] = tested on: OVCAR-8 ovarian
[46] = tested on: MALME-3M melanoma
[47] = tested on: SK-MEL-2 melanoma
[48] = tested on: ACHN renal
[49] = tested on: RPMI-8226 leukemia
[50] = tested on: SF-268 CNS
[51] = tested on: RXF 393 renal
[52] = tested on: A549 NSCLC
[53] = tested on: HCT-116 colon
[54] = tested on: M14 melanoma
[55] = tested on: OVCAR-3 ovarian
[56] = tested on: SNB-75 CNS
[57] = tested on: HCC-2998 colon
[58] = tested on: CAKI-1 renal
[59] = tested on: HT29 colon
[60] = tested on: K-562 leukemia
[61] = tested on: U251 CNS
[62] = tested on: SNB-19 CNS
[63] = tested on: SF-295 CNS
[64] = tested on: UO-31 renal

SMILES: O=NN(CCCl)C(=O)NC1CCC(C(=O)O)CC1 (centres undefined)
- TGI [1]: > 100 µM
- TGI [2]: > 100 µM
- TGI [3]: > 100 µM
- TGI [4]: > 100 µM
- TGI [5]: > 100 µM
- TGI [6]: > 100 µM
- TGI [7]: > 100 µM
- TGI [8]: 17.5 µM and 33.8 µM
- TGI [9]: > 100 µM
- TGI [10]: > 100 µM
- TGI [11]: > 100 µM
- TGI [12]: > 100 µM
- TGI [13]: > 100 µM
- TGI [14]: > 100 µM
- TGI [15]: > 100 µM
- TGI [16]: > 80.9 µM
- TGI [17]: > 100 µM and 49 µM
- TGI [18]: > 100 µM
- TGI [19]: > 100 µM
- TGI [20]: > 100 µM
- TGI [21]: > 100 µM
- TGI [22]: > 100 µM
- TGI [23]: > 100 µM
- TGI [24]: > 100 µM
- TGI [25]: > 100 µM
- TGI [26]: > 100 µM
- TGI [27]: > 100 µM
- TGI [28]: > 100 µM
- TGI [29]: > 100 µM
- TGI [30]: > 100 µM
- TGI [31]: > 100 µM
- TGI [32]: > 100 µM
- TGI [33]: > 100 µM
- TGI [34]: > 100 µM
- TGI [35]: > 100 µM
- TGI [36]: > 100 µM
- TGI [37]: 16.2 µM and 19.2 µM
- TGI [38]: > 100 µM
- TGI [39]: 75.1 µM and > 100 µM
- TGI [40]: > 100 µM
- TGI [41]: > 100 µM
- TGI [42]: > 100 µM
- TGI [43]: > 100 µM
- TGI [44]: > 100 µM
- TGI [45]: > 100 µM
- TGI [46]: > 100 µM
- TGI [47]: > 100 µM
- TGI [48]: > 100 µM
- TGI [49]: > 100 µM
- TGI [50]: > 100 µM
- TGI [51]: > 100 µM
- TGI [52]: > 100 µM
- TGI [53]: > 100 µM
- TGI [54]: > 100 µM
- TGI [55]: > 100 µM
- TGI [56]: > 100 µM
- TGI [57]: > 100 µM
- TGI [58]: > 100 µM
- TGI [59]: > 100 µM
- TGI [60]: > 100 µM
- TGI [61]: > 100 µM
- TGI [62]: > 100 µM
- TGI [63]: > 100 µM
- TGI [64]: > 100 µM
